Reference: US11098038B2, “Imidazole-based anticancer agents and derivatives thereof, and methods of making and using same” (The University of Toledo, priority 2017, dated 2021)

A melting point of 182.5 °C was found for `Cn1ccnc1C(=O)/C=C/c1ccc(CC(=O)NC2CCCCC2)cc1` [Compound 29, (E)-N-cyclohexyl-2-(4-(3-(1-methyl-1-H-imidazol-2-yl)-3-oxoprop-1-en-1-yl)phenyl) acetamide] in this work.

A melting point of 222 to 226 °C was found for `Cn1ccnc1C(=O)/C=C/c1ccc(CC(=O)Nc2ccc(C(F)(F)F)cc2)cc1` [Compound 26, (E)-2-(4-(3-(1-methyl-1H-imidazol-2-yl)-3-oxoprop-1-en-1-yl)phenyl)-N-(4-(trifluoromethyl)phenyl) acetamide] in this work.

A melting point of 235 °C was found for `O=C(Cc1ccc(/C=C/C(=O)c2ncc[nH]2)cc1)Nc1c(F)c(F)c(F)c(F)c1F` [Compound 35, (E)-2-(4-(3-(1H-imidazol-2-yl)-3-oxoprop-1-en-1-yl)phenyl)-N-(perfluorophenyl)acetamide] in this work.

A melting point of 255 °C was found for `O=C(Cc1ccc(/C=C/C(=O)c2ncc[nH]2)cc1)Nc1cc(F)c(F)c(F)c1` [Compound 33, (E)-2-(4-(3-(1H-imidazol-2-yl)-3-oxoprop-1-en-1-yl)phenyl)-N-(3,4,5-trifluorophenyl) acetamide] in this work.

A melting point of 224 to 226 °C was found for `COc1ccc(NC(=O)Cc2ccc(/C=C/C(=O)c3ncc[nH]3)cc2)cc1` [Compound 19, (E)-2-(4-(3-(1H-imidazol-2-yl)-3-oxoprop-1-en-1-yl)phenyl)-N-(4-methoxyphenyl) acetamide] in this work.

A melting point of 243 °C was found for `O=C(Cc1ccc(/C=C/C(=O)c2ncc[nH]2)cc1)Nc1cc(C(F)(F)F)cc(C(F)(F)F)c1` [Compound 37, (E)-2-(4-(3-(1H-imidazol-2-yl)-3-oxoprop-1-en-1-yl)phenyl)-N-(3,5-bis(trifluoromethyl)phenyl) acetamide] in this work.

A melting point of 208.5 °C was found for `O=C(Cc1ccc(/C=C/C(=O)c2ncc[nH]2)cc1)NC1CCCCC1` [Compound 23, (E)-2-(4-(3-(1H-imidazol-2-yl)-3-oxoprop-1-en-1-yl)phenyl)-N-cyclohexylacetamide] in this work.

A melting point of 229 to 230 °C was found for `O=C(Cc1ccc(/C=C/C(=O)c2ncc[nH]2)cc1)Nc1cccc2ccccc12` [Compound 17, (E)-2-(4-(3-(1H-imidazol-2-yl)-3-oxoprop-1-en-1-yl)phenyl)-N-(naphthalen-1-yl)acetamide] in this work.

A melting point of 211 to 214 °C was found for `O=C(Cc1ccc(/C=C/C(=O)c2ncc[nH]2)cc1)Nc1ccccc1` [Compound 21, (E)-2-(4-(3-(1H-imidazol-2-yl)-3-oxoprop-1-en-1-yl)phenyl)-N-phenylacetamide] in this work.
